From patent publication US20110281928A1, “Process for the preparation of zofenopril and its pharmaceutically acceptable salts thereof” (GLENMARK GENERICS LTD, priority 2009, published 2011)
Counter-ions that a name gives are not always drawn.

Key:
Format in all cases: physicochemical
[1] = Solubility in organic solvents (statement)
Bulk and tapped density = conditions: Example 5 product
[2] = Specific surface area by B.E.T. nitrogen absorption
Excerpt: Specific surface area is defined in units of square meters per gram (m^2/g). It is usually measured by nitrogen absorption analysis. In this analysis, nitrogen is absorbed on the surface of the substance. The amount of the absorbed nitrogen (as measured during the absorption or the subsequent desorption process) is related to the surface area via a formula known as the B. ET. formula. BET Surface Area Analyser Model SAA-2000, specifically designed for BET_Surface Area Analysis.
The Specific Surface Area is expressed in meters square per gram of a sample. It is a measure of area covered by Nitrogen gas adsorbed in a mono-layer form.

[3] = Particle size distribution by laser diffraction
Excerpt: The D10, D50, and D90 values are useful ways for indicating a particle size distribution. D90 is a size value where at least 90 percent of the particles have a size smaller than the stated value. Likewise D10 refers to 10 percent of the particles having a size smaller than the stated value. D50 refers to at least 50 percent of the particles having a size smaller than the stated value and D [4,3] value refers to a mean particle size. Methods for determining D10, D50, D90 and D [4,3] include those using laser light diffraction with equipment sold by Malvern Instruments ltd.
As used herein, “crystalline particles” means any combination of single crystals, aggregates and agglomerates. As used herein “Particle Size Distribution (P.S.D.)” means the cumulative volume size distribution of equivalent spherical diameters as determined by laser diffraction at 1 bar dispersive pressure in a SympatecHelos equipment. “Mean particle size distribution, i.e., d (0.5)” correspondingly, means the median of said particle size distribution.

In the case of C[C@H](CSC(=O)c1ccccc1)C(=O)N1C[C@@H](Sc2ccccc2)C[C@H]1C(=O)O [zofenopril calcium, (4S)-N-[3-(Benzoylsulfanyl)-2(S)-methylpropionyl]-4-(phenylsulfanyl)-L-proline calcium salt], the “Solubility in organic solvents” value [1] is reported as “insoluble”, the “Bulk density (Tapped)” value (Bulk and tapped density) is reported as 0.282 gm/ml and the “Bulk density (untapped)” value (Bulk and tapped density) is reported as 0.201 gm/ml. The “Specific surface area by B.E.T” value ([2]; Example 5 product) was 14.13 m^2/g, the “Specific surface area, as measured by B.E.T.” value ([2]; crystal particles, description) was “about 14.13 m^2/gm” and the “Particle size distribution d 10” value ([3]; Example 5 product) was 3.902 μ. For the same molecule, the “Particle size distribution d 50” value ([3]; Example 5 product) was 12.088 μ, the “Particle size distribution d90” value ([3]; Example 5 product) was 33.858 μ and the “Mean particle size distribution d (0.5)” value ([3]; crystal particles, description) was 12.088 μm. The “Particle size distribution d (0.1)” value ([3]; crystal particles, description) was 3.902 μm and the “Particle size distribution d (0.9)” value ([3]; crystal particles, description) was 33.858 μm.
